In assay [1] the test system is ARG1 mRNA expression in RAW 264.7 cells. Briefly: qRT-PCR of ARG1 mRNA in IL-4/IL-13-stimulated RAW 264.7 cells. Type of assay: cell-based, mouse. Particulars: Mus musculus, RAW264.7, IL-4/IL-13 (20 ng/mL) plus compound 10 μM, 12 h, stimulated control = 100%, mean ± SD, read-out: ARG1 mRNA Relative Expression (%). The source says: We first investigated the impacts of a series of commercially available natural pseudolaric acids or their O-pyranosides (Figure 1) on the pro-tumoral phenotype of TAMs, which play a critical role in anti-tumor immune response modulation. […] In contrast, M1-biased macrophages combat tumor growth and bacterial infections by expressing inducible nitric oxide synthase 2 (NOS2), which catalyzes the production of nitric oxide (NO). Recognizing the pivotal roles of ARG1 and NOS2, we utilized these molecules as key biomarkers and effectors for assessing macrophage immune function. In our experiments, the mouse monocyte–macrophage leukemia cell line RAW 264.7 was induced with IL-4/IL-13 to acquire an M2-like pro-tumoral phenotype. Concurrently, the cells were treated with the pseudolaric acid-related natural products 1–7 at a concentration of 10 μM for 12 h. Additionally, PLX3397 was used as a positive control at a concentration of 0.5 μM. […] As shown in Table 1 and Figure S1A, pseudolaric acid B (1), its deacetoxyl analogue 2 (pseudolaric acid C), and β-D-glucoside 7 substantially attenuated the upregulation of ARG1 mRNA expression induced by IL-4/IL-13, with statistically significant effects. In contrast, bis-carboxylic acids analogs 4 (pseudolaric acid C2) and 6 (demethoxydeacetoxypseudolaric acid B) have no significant impact on ARG1 mRNA expression.
With these carboxylic acid-modified derivatives in hand, we investigated their impact at 10 μM on ARG1 and NOS2 mRNA expression in RAW 264.7 cells pre-stimulated with IL-4/IL-13 to evaluate the effects on the pro-tumor phenotype of macrophages. […] Further removal of one hydroxyl from the glycerol moiety 15 further enhanced the inhibitory effect on ARG1 expression but had no significant impact on NOS2 expression.
Total RNA was isolated from cells using the EZ-press RNA Purification Kit (EZBioscience, Suzhou, China) and subjected to reverse transcription with the 5×HiScript II qRT SuperMix II (Vazyme, Nanjing, China). PCR was performed with the 2×ChamQ Universal SYBR qPCR Master Mix (Vazyme, Nanjing, China). All primers for qRT-PCR are described in Table S1. The 2^−∆∆Ct method was utilized to calculate the fold change in gene expression, with the expression levels in the stimulated group set as the baseline for normalization.
(In general: Real-time PCR tracks product formation cycle by cycle.)

For assay [2], the system named is ARG1, NOS2, CD206 and MHC II mRNA expression in BMDMs. Nature of the assay: qRT-PCR of ARG1, NOS2, CD206, MHC II in BMDMs. Type of assay: cell-based, mouse. Conditions: BMDMs stimulated with IL-4/IL-13, different concentrations, 12 h. On the procedure:
We also extended the test to primary murine macrophages derived from bone marrow (BMDMs), which were cultured in vitro with recombinant mouse M-CSF for 6 days. The BMDMs were then stimulated with IL-4/IL-13, leading to their transformation into M2-like pro-tumoral macrophages. This transformation was characterized by an increase in both ARG1 and CD206 expression and a decrease in both NOS2 and MHC II expression. […] Subsequently, we assessed the capacity of compound 12 to inhibit the M2-like polarization of macrophages using CSF-1-differentiated mouse BMDMs. These cells were treated with IL-4 and IL-13 for 48 h, and the expression levels of CD206, an M2-type marker, and CD86, an M1-type marker, were analyzed via flow cytometry. […]
Figure 2 Compound 12 inhibits the M2-like polarized phenotype of macrophages. […] The expression levels of the markers CD206 and CD86 on induced macrophages were determined by flow cytometry, and the mean fluorescence intensity (MFI) was analyzed with FlowJo (C), or the cells were lysed and immunoblotted to detect the indicated proteins (D). […] Data are represented as means ± SD. ^### p < 0.001 vs. non-stimulated control group, * p < 0.05, ** p < 0.01, *** p < 0.001 vs. stimulated control group. p-values were determined using one-way ANOVA.

Molecules are shown by their SMILES.

As for `COC(=O)C1=CC[C@@]23CC[C@@H]([C@@](C)(/C=C/C=C(\C)C(=O)NNCCO)OC2=O)[C@@]3(OC(C)=O)CC1` [compound 12, Methyl(3R,4S,4aS,9aR)-4a-acetoxy-3-((1E,3E)-5-(2-(2-hydroxyethyl)hydrazineyl)-4-methyl-5-oxopenta-1,3-dien-1-yl)-3-methyl-1-oxo-3,4,4a,5,6,9-hexahydro-1H-4,9a-ethanocyclohepta[c]pyran-7-carboxylate], the mrna remaining at 10 µM in assay [1] was found to be 1.4 ± 1.1%. For the same compound, the “IL-4/IL-13-induced increase in ARG1 and CD206 and decrease in NOS2 and MHC II expression” value in assay [2] is on record as “significantly reversed these trends”.

Source of the values: publication PMC12114375, “Discovery of Hydrazineyl Amide Derivative of Pseudolaric Acid B for Reprogramming Tumor-Associated Macrophages Against Tumor Growth” (Molecules, 2025).
